Data published in PMC7400207, “It Takes Two: Dimerization Is Essential for the Broad-Spectrum Predatory and Defensive Activities of the Venom Peptide Mp1a from the Jack Jumper Ant Myrmecia pilosula” (Biomedicines, 2020).
Like-named read-outs stand apart in the source and are kept apart here. Marks after values point to notes of the source that are not given here.

Key:
[1] = system: Drosophila melanogaster; experiment: Drosophila melanogaster microinjection assay; format: in vivo; conditions: intrathoracic injection, 50 nL, adult female flies, lethality at 24 h; three dose-response curves, ± SEM
Experimental: The insecticidal activity of the chemically synthesized 1a and analogues thereof were determined by injection into adult female D. melanogaster aged 3–5 days (mass 0.7–0.9 mg) as described previously. Analogues were dissolved in water and intrathoracically injected using pulled glass capillaries at a volume of 50 nL per fruit fly, and the results were compared against an equivalent injection volume of water alone. All injections were performed in the morning or early afternoon. At 24 h post-injection flies were monitored for lethality. Dose–response curves were constructed using 7–10 doses per analogue (each dose tested in eight flies) and three separate dose–response curves were constructed for each analogue. The lethality in the groups receiving the analogues were adjusted using the respective control group lethality using the Henderson-Tilton formula [20]. The median lethal dose (LD50) of each analogue was calculated based on the three dose–response curves using GraphPad Prism 8.0 [21]. One-way ANOVA followed by Dunnett’s multiple comparison test were used to compare LD50 values.

[2] = system: F11 cells; experiment: FLIPR calcium assay, activation of F11 cells; format: cell-based; conditions: for Concentration at which cytolysis (rapid increase in fluorescence followed by decrease to or below baseline) was observed / EC50: F11 cells, FLIPR; for EC50: Calcium 4 dye, max-min fluorescence in 300 s after peptide addition, PSS with 0.1% BSA, mean ± SEM, triplicate, read-out: Neuronal Cell Activation (EC50)
Experimental: F11 cells were cultured as previously described. Cells were maintained on Ham’s F12 media supplemented with 10% fetal bovine serum (FBS), 100 µM hypoxanthine, 0.4 µM aminopterin, and 16 µM thymidine (Hybri-MaxTM, Sigma Aldrich, North Ryde, Australia). Then, 384-well imaging plates (Corning) were seeded 48 h prior to imaging resulting in 90–95% confluence at imaging. Cells were incubated for 30 min with the Calcium 4 assay component A according to the manufacturer’s instructions (Molecular Devices, Sunnyvale, CA, USA) in physiological salt solution (PSS; composition in mM: 140 NaCl, 11.5 D-glucose, 5.9 KCl, 1.4 MgCl2, 1.2 NaH2PO4, 5 NaHCO3, 1.8 CaCl2, 10 HEPES) at 37°C. Fluorescence was measured using a fluorescent imaging plate reader (FLIPR^TETRA) equipped with a CCD camera (Excitation: 470–490 nm, Emission: […]) (Molecular Devices, Sunnyvale, CA, USA). Signals were read every second for 10 s before, and 300 s after the addition of peptides in PSS supplemented with 0.1% bovine serum albumin. All data are the mean ± SEM of assays performed in triplicate. Maximum–minimum fluorescence in the 300 s period after peptide addition was recorded as the response. Concentration–response data were fitted with a four-parameter Hill equation (variable slope) using GraphPad Prism 8 to obtain effective concentration (EC50) values.

[3] = system: HEK293 cells; conditions: HEK293, 24 h, resazurin; cited from earlier work
Experimental: (§1) Table 2 Summary of bioassay data for synthetic Mp1a and analogues, including effective concentration (EC50) for activation of F11 cells, concentrations that caused 50% inhibition (IC50) for inhibition of larval development of H. contortus; median lethal dose (LD50) for lethal insecticidal effects on D. melanogaster; concentrations required to induce 50% cell death (CC50) for effects on viability o | column: Cytotoxicity (CC50 µM) ^b

[4] = system: Haemonchus contortus; experiment: microbe, parasite or virus in culture; format: cell-based; conditions: for IC50: read-out: Anthelmintic Activity (IC50), inhibition of larval development; for Fold less active than levamisole (IC50 higher): larval development, drug-susceptible isolate
Experimental: Sheep were infected with H. contortus Kirby isolate (field isolate from the University of New England Kirby Research Farm in 1986; susceptible to all commercial anthelmintics) and housed at the Commonwealth Scientific and Industrial Research Organisation (CSIRO) FD McMaster Laboratory, Armidale, NSW. All animal procedures were approved by the FD McMaster Animal Ethics Committee, CSIRO (Approval Number AEC 17/12, approval date 15.6.2017). Eggs were prepared from overnight fecal collection as described. In brief, feces were filtered through mesh filters, settled, and supernatant removed by vacuum. Eggs were recovered by density centrifugation using 10 and 25% (w/v) sucrose solutions, centrifuged at 650× g for 7 min. Eggs were recovered from the interface of the two sucrose layers, rinsed with distilled water, sterilized with bleach, rinsed again, and diluted to 4500 eggs/mL. Tylosin tartrate (800 μg/mL) and amphotericin B (25.0 μg/mL) were added, and eggs were used immediately for larval development assays.
Assays were conducted using 96-well microtitre plates, with each well containing 50 μL of 2% agar, 20 μL of egg solution and 20 μL of peptide solution in water. The commercial anthelmintic levamisole (Sigma Aldrich) was used as a positive control (final 1% v/v). Negative controls contained equivalent volumes of water or DMSO (final 1% v/v). Plates were incubated at 26 °C for six days. After 24 h, each well was fed with 10 μL of a nutrient solution containing Escherichia coli XL1-Blue1 (grown overnight at 37 °C) and growth medium. The growth medium consisted of yeast extract (1% w/v), Earle’s salt solution (10% v/v), saline solution (0.9% NaCl, w/v), and sodium bicarbonate (1 mM) in Luria-Bertani medium (LB). Larvae were killed and stained with Lugol’s iodine solution after six days. Larvae that had developed to the infective L3 stage were counted, and the numbers in treated assay wells were expressed as a percentage of the number of infective L3 stage larvae in multiple control wells. Concentrations that caused 50% inhibition (IC50 values) were calculated from three experiments of duplicate assays.

[5] = system: human red blood cells; conditions: cited from earlier work
Experimental: as §1, with “Hemolysis (HC50” for “Cytotoxicity (CC50”

[6] = H. contortus Kirby isolate, egg to infective L3, 6 days, 26 °C, three experiments of duplicate assays, ± SEM, for 1a the component at higher concentrations (about 90% of population)

Row | SMILES | Insecticidal Activity (LD50) [1] | Concentration at which cytolysis (rapid increase in fluorescence followed by decrease to or below baseline) was observed [2] [µM] | EC50 [2] [µM] | Cytotoxicity (CC50) [3] [µM] | IC50 [4, 6] [µM] | Fold less active than levamisole (IC50 higher) [4] | Hemolysis (HC50) [5] [µM] | Fold less active than native Mp1a (1a), F11 cell activation ([2]; ratio of EC50 values) | IC50 ([4]; Haemonchus contortus, 144 h) [µM]
1 | CC[C@H](C)[C@H](N)C(=O)N[C@@H](CC(=O)O)C(=O)N[C@@H](Cc1c[nH]c2ccccc12)C(=O)N[C@@H](CCCCN)C(=O)N[C@@H](CCCCN)C(=O)N[C@H](C(=O)N[C@@H](CC(=O)O)C(=O)N[C@@H](Cc1c[nH]c2ccccc12)C(=O)N[C@@H](CCCCN)C(=O)N[C@@H](CCCCN)C(=O)N[C@H](C(=O)N[C@@H](CO)C(=O)N[C@@H](CCCCN)C(=O)N[C@@H](CCCCN)C(=O)N[C@H](C(=O)N[C@H]1CSSC[C@@H](C(=O)N[C@@H](CCCCN)C(=O)N[C@@H](CCCCN)C(=O)N[C@H](C(=O)N[C@@H](CC(C)C)C(=O)N[C@@H](CCCCN)C(=O)N[C@@H](CCC(N)=O)C(N)=O)C(C)C)NC(=O)[C@H](C(C)C)NC(=O)[C@H]([C@@H](C)O)NC(=O)[C@H](CCCCN)NC(=O)[C@H](C)NC(=O)[C@H](CC(C)C)NC(=O)[C@H](C(C)C)NC(=O)[C@@H](NC(=O)[C@@H](NC(=O)CNC(=O)[C@H](CCCCN)NC(=O)[C@H](CO)NC(=O)[C@@H](NC(=O)[C@H](CC(C)C)NC(=O)CNC(=O)[C@@H](NC(=O)[C@@H](N)CC(C)C)[C@@H](C)CC)C(C)C)[C@@H](C)O)CSSC[C@@H](C(=O)N[C@@H](CCCCN)C(=O)N[C@@H](Cc2ccccc2)C(=O)N[C@@H](CC(C)C)C(N)=O)NC(=O)[C@H](C)NC(=O)[C@H](CCCCN)NC(=O)[C@H](CC(C)C)NC(=O)[C@H](CCSC)NC(=O)[C@H](C(C)C)NC(=O)[C@H](CCCCN)NC1=O)[C@@H](C)O)C(C)C)C(C)C [Analogue 1c] | 552.7 ± 18.2 ^a pmol/g | ≥ 1 | 1.39 ± 0.34 | 0.7 | 7.2 ± 0.1 | approximately 10 fold | > 12 | – | –
2 | CC[C@H](C)[C@H](N)C(=O)N[C@@H](CC(=O)O)C(=O)N[C@@H](Cc1c[nH]c2ccccc12)C(=O)N[C@@H](CCCCN)C(=O)N[C@@H](CCCCN)C(=O)N[C@H](C(=O)N[C@@H](CC(=O)O)C(=O)N[C@@H](Cc1c[nH]c2ccccc12)C(=O)N[C@@H](CCCCN)C(=O)N[C@@H](CCCCN)C(=O)N[C@H](C(=O)N[C@@H](CO)C(=O)N[C@@H](CCCCN)C(=O)N[C@@H](CCCCN)C(=O)N[C@H](C(=O)N[C@H]1CSSC[C@@H](C(=O)N[C@@H](CCCCN)C(=O)N[C@@H](CCCCN)C(=O)N[C@H](C(=O)N[C@@H](CC(C)C)C(=O)N[C@@H](CCCCN)C(=O)N[C@@H](CCC(N)=O)C(N)=O)C(C)C)NC(=O)[C@H](C(C)C)NC(=O)[C@H]([C@@H](C)O)NC(=O)[C@H](CCCCN)NC(=O)[C@H](C(C)C)NC(=O)[C@H](CC(C)C)NC(=O)[C@H](C(C)C)NC(=O)[C@@H](NC(=O)[C@@H](NC(=O)CNC(=O)[C@H](CCCCN)NC(=O)[C@H](CO)NC(=O)[C@@H](NC(=O)[C@H](CC(C)C)NC(=O)CNC(=O)[C@@H](NC(=O)[C@@H](N)CC(C)C)[C@@H](C)CC)C(C)C)[C@@H](C)O)CSSC[C@@H](C(=O)N[C@@H](CCCCN)C(=O)N[C@@H](Cc2ccccc2)C(=O)N[C@@H](CC(C)C)C(N)=O)NC(=O)[C@H](C)NC(=O)[C@H](CCCCN)NC(=O)[C@H](C)NC(=O)[C@H](CCSC)NC(=O)[C@H](C(C)C)NC(=O)[C@H](CCCCN)NC1=O)[C@@H](C)O)C(C)C)C(C)C [Analogue 1d] | 578 ± 9.7 ^a pmol/g | ≥ 1 | 3.38 ± 2.8 | 0.7 | 9.5 ± 0.3 | approximately 10 fold | > 12 | – | –
3 | CC[C@H](C)[C@H](N)C(=O)N[C@@H](CC(=O)O)C(=O)N[C@@H](Cc1c[nH]c2ccccc12)C(=O)N[C@@H](CCCCN)C(=O)N[C@@H](CCCCN)C(=O)N[C@H](C(=O)N[C@@H](CC(=O)O)C(=O)N[C@@H](Cc1c[nH]c2ccccc12)C(=O)N[C@@H](CCCCN)C(=O)N[C@@H](CCCCN)C(=O)N[C@H](C(=O)N[C@@H](CO)C(=O)N[C@@H](CCCCN)C(=O)N[C@@H](CCCCN)C(=O)N[C@H](C(=O)N[C@H]1CSSC[C@H](NC(=O)[C@@H](NC(=O)CNC(=O)[C@H](CCCCN)NC(=O)[C@H](CO)NC(=O)[C@@H](NC(=O)[C@H](CC(C)C)NC(=O)CNC(=O)[C@@H](NC(=O)[C@@H](N)CC(C)C)[C@@H](C)CC)C(C)C)[C@@H](C)O)C(=O)N[C@@H](C(C)C)C(=O)N[C@@H](CC(C)C)C(=O)N[C@@H](C(C)C)C(=O)N[C@@H](CCCCN)C(=O)N[C@@H]([C@@H](C)O)C(=O)N[C@@H](C(C)C)C(=O)N[C@H](C(=O)N[C@@H](CCCCN)C(=O)N[C@@H](CCCCN)C(=O)N[C@H](C(=O)N[C@@H](CC(C)C)C(=O)N[C@@H](CCCCN)C(=O)N[C@@H](CCC(N)=O)C(N)=O)C(C)C)CSSC[C@@H](C(=O)N[C@@H](CCCCN)C(=O)N[C@@H](Cc2ccccc2)C(=O)N[C@@H](CC(C)C)C(N)=O)NC(=O)[C@H](C)NC(=O)[C@H](CCCCN)NC(=O)[C@H](CC(C)C)NC(=O)[C@H](CCSC)NC(=O)[C@H](C(C)C)NC(=O)[C@H](CCCCN)NC1=O)[C@@H](C)O)C(C)C)C(C)C [Analogue 2a] | > 600 pmol/g | ≥ 1 | 0.9 ± 0.08 | > 10 | 35.8 ± 1.9 | – | > 10 | equipotent | –
4 | c1ccc([C@H]2CN3CCSC3=N2)cc1 [levamisole, reference compound] | – | – | – | – | – | – | – | – | 0.68
